In patent US20210332001A1, “SYNTHESIS AND ANTI-TUMOR ACTIVITIES OF ACYL-PARA-AMINOPHENOL DERIVATIVES” (Montefiore Medical Center, priority 2018, published 2021):
Each block holds one compound with its values, some of them ahead of it.

Tests used:
[1] = test system: U87MG cells, stage IV astrocytoma; assay: U87MG cell survival (presto blue), 48 hours post treatment; format: cell-based
Protocol: FIG. 1. U87MG cells, stage IV astrocytoma obtained from ATCC, were tested against APAP and its derivatives at various concentrations with 0.2% DMSO as a vehicle. Cells were seeded at 3500 cells and allowed 48 hours to stabilize before treatment. Drugs were administered and data for cell survival, using presto blue, were analyzed at 48 hours post treatment.
U87MG cells, stage IV astrocytoma obtained from ATCC, were tested against APAP and its derivatives at various concentration with 0.2% DMSO as a vehicle (FIG. 1). Cells were seeded at 3500 cells and allowed 48 hours to stabilize before treatment. Drugs were administered and data for cell survival, using presto blue, were analyzed at 48 hours post treatment.

[2] = test system: differentiated neuronal cell line HCN-2; assay: Toxicity on differentiated neuronal cell line HCN-2; format: cell-based, human; conditions: HCN-2 differentiated 12 days; for reduction (non-significant): highest soluble concentration, not a significant reduction
Protocol: FIG. 3. The compounds were tested on a differentiated neuronal cell line (9) HCN-2, obtained from ATCC. Cells were seeded at 5,000 cells per well using a low passage, second passage of cells to ensure cell stability. Cells were then subjected to induced differentiation, at 72 hours, with a differentiating concoction composed of 25 ng/mL NGF-beta-human, 0.05 mM dibutyryl cAMP and 0.5 mM IBMX in 10% DMEM, all differentiating factors were obtained from Sigma Aldrich (9). Cells were treated with differentiating factor for 12 days to ensure that cells differentiated into neuronal cells. On the twelfth day, cells were treated with and without drugs at the highest soluble concentration to determine the activity of the compounds on neuronal cells.
The compounds were also tested on a differentiated neuronal cell line, HCN-2, obtained from ATCC (FIG. 3).

[3] = test system: T-cell lymphoma cells line (Jurkat cells); assay: Jurkat T-cell lymphoma cell survival (presto blue), 48 hours post treatment; format: cell-based
Protocol: FIG. 2. The compounds were tested against T-cell lymphoma cells line (Jurkat cells) obtained from ATCC and were tested against APAP and its derivatives at various concentrations with 0.2% DMSO as a vehicle. Free flowing cells were seeded at 3500 cells and allowed 48 hours to stabilize before treatment. Drugs were administered to both seeded wells and wells that that were designated blank, without cells. This additional step was added in order to account for the effects of the drugs on the reagent used for analysis. Data for cell survival, using presto blue, was analyzed at 48 hours post treatment.
The effects of the drugs on lymphoma cells were tested on Jurkat cells, as described above and in FIG. 2.

malignant astrocytes = conditions: cell culture method, Casper et al. (6); cited from earlier work

Compound: CC(=O)Nc1ccc(O)cc1 [APAP, N-(4-Hydroxyphenyl)acetamide, reference compound]
ability to reduce the growth of malignant astrocytes (malignant astrocytes): only mild | reduction in cell growth as compared to control 0.2% DMSO ([1]; 2 mM): 36% | reduction in cell growth as compared to control 0.2% DMSO ([3]; 2 mM): 16%

Compound: CCCCCCC(=O)Nc1ccc(O)cc1 [PL7, N-(4-hydroxyphenyl)heptanamide]
activity (cell survival) in words ([1]; 0.5 mM): greatest activity | melting point: 109 °C | toxicity on neuronal cells ([2]; highest concentration 0.5 mM): toxicity

Compound: O=C(Nc1ccc(O)cc1)c1ccccc1 [PL5B, N-(4-hydroxyphenyl)benzamide]
melting point: 217 to 218 °C

Compound: CC(C)C(=O)Nc1ccc(O)cc1 [PL4, N-(4-hydroxyphenyl)-2-methylpropanamide]
melting point: 160 to 162 °C

Compound: CCCCCC(=O)Nc1ccc(O)cc1 [PL6, N-(4-hydroxyphenyl)hexanamide]
melting point: 110 °C

Compound: O=C(Nc1ccc(O)cc1)c1ccc2ccccc2c1 [PL11]
reduction in cell growth ([1]; 0.25 mM): 87.5% | reduction (non-significant) [2]: 35.6%

Further lines, with some results ahead:

melting point: 120 °C
Compound: CCCCCCCC(=O)Nc1ccc(O)cc1 [PL8, N-(4-hydroxyphenyl)octanamide]
activity (cell survival) in words ([1]; 0.25 mM): greatest activity | toxicity on neuronal cells ([2]; highest concentration 0.5 mM): toxicity

melting point: 128 °C
Compound: CCCCCCCCCCCC(=O)Nc1ccc(O)cc1 [PL12, N-(4-hydroxyphenyl)dodecanamide]

melting point: 124 °C
Compound: CCCCCCCCCC(=O)Nc1ccc(O)cc1 [PL10, N-(4-hydroxyphenyl)decanamide]
activity when compared to APAP ([3]; 0.125 mM): greatest activity | reduction (non-significant) [2]: 35.6%

melting point: 119 °C
Compound: CCCCCCCCC(=O)Nc1ccc(O)cc1 [PL9, N-(4-hydroxyphenyl)nonanamide]
toxicity on neuronal cells ([2]; highest concentration 0.25 mM): toxicity

melting point: 131 °C
Compound: CCCCCCCCCCCCCCCC(=O)Nc1ccc(O)cc1 [PL16, N-(4-Hydroxyphenyl)hexadecanamide]
